What was measured:
2008 = experiment: Tumor cell killing, 2008; type: cell-based, human; conditions: 2008, Ovarian; read-out: Tumor cell killing (IC50) concentration
Method: (§1) Tissue Culture and Reagents: Paclitaxel was purchased from Sigma. Cell lines were purchased from ATCC. Cell lines were routinely grown in DMEM or RPM1 (CellGro) supplemented with 10% fetal bovine serum (Atlas) and 1 unit/mL penicillin-streptomycin (Gibco).
(§2) A number of tumor cell lines were tested using a dose response end point assay system. The cells were grown in either DMEM or RPMI supplemented with 10% fetal bovine serum and 1 unit/mL Penicillin-Streptomycin solution. The tumor cells were plated into 6 well dishes at a cell density of 1.0×10^5 cells/mL/well and compounds were added 24 h later at various concentrations. Cell counts were determined from duplicate wells after 96 h of treatment. The total number of viable cells was determined by trypan blue exclusion.

SW480 = experiment: Tumor cell killing, SW480; type: cell-based, human; conditions: SW480, COLO-RECTAL; read-out: Tumor cell killing (IC50) concentration
Method: as §1, §2

DU145 [1] = experiment: Soft agar colony formation, DU145; type: cell-based, human; conditions: DU145, dose dependent
HCT-116 = experiment: Tumor cell killing, HCT-116; type: cell-based, human; conditions: HCT-116, COLO-RECTAL; read-out: Tumor cell killing (IC50) concentration
Method: as §1, §2

K562 = experiment: Tumor cell killing, K562; type: cell-based, human; conditions: K562, CML; read-out: Tumor cell killing (IC50) concentration
Method: as §1, §2

DU145 [2] = experiment: PARP cleavage western blot, tumor cells; type: cell-based, human; conditions: tumor cells (DU145), 24, 48 and 72 h
Method: (§3) FIG. 2 Preferential tumor cell killing activity of 6aa. A. Cell Cycle analyses. Normal (HUVEC) and tumor cells (DU145) were treated with 20 nM concentration of 6aa and incubated in medium containing 10% fetal bovine serum. At 24 hr intervals, the cells were fixed, stained with propidium iodide and analyzed for their DNA content by flow Cytometry. B. Induction of apoptosis in normal (HUVEC) and tumor cells (DU145) was assessed by western blot analysis of cell lysates treated with 6aa for 24, 48 and 72 h. The Western blots were probed with anti-PARP antibodies to assess the cleavage of the protein.
[…] were plated at a density of 3.0×10^6 cells per 150 mm^2 plate and treated 24 h later with either DMSO or 6aa. The cells were collected at the indicated time points and cell pellets were frozen. The frozen cell pellets were lysed in 1% NP40/PBS lysis buffer containing protease inhibitors. Equal amounts of total cellular protein was then resolved on a 10%-SDS-polyacrylamide gel. The gels were transferred onto nitrocellulose paper (S/S), hybridized with anti-PARP antibodies (BD) and developed using ECL (Perkin-Elmer, MA) solution.

[3] = test system: human vascular endothelial cells (HUVEC); experiment: Cell cycle analysis by flow cytometry, normal cells; type: cell-based; conditions: 20 nM, 24 hr intervals
Method: as §3
Human prostate tumor cells, DU145 cells, and normal diploid human lung fibroblasts, HFL-1 cells, were grown in DMEM (Cellgro) supplemented with 10% fetal bovine serum and 1 unit/mL penicillin-streptomycin. The cells were plated onto 100 mm^2 dishes at a cell density of 1.0×10^6 cells/dish, and 24 h later, they were treated with 2.5 μM of the compound. The cells were harvested 24, 48 and 72 h after treatment. The cells were removed from the plate by trypsin digestion and combined with the non-attached cells found in the medium. The cell pellets were washed in phosphate buffered saline (PBS), and fixed in ice cold 70% ethanol for at least 24 h. […] The stained cells were then analyzed on a Becton-Dickinson (BD) (FACScan) flow cytometer and the data analyzed by cell cycle analysis software (Modfit, BD).

Sk-OV-3 = experiment: Tumor cell killing, Sk-OV-3; type: cell-based, human; conditions: Sk-OV-3, OVARIAN; read-out: Tumor cell killing (IC50) concentration
Method: as §1, §2

MIA-PaCa-2 cells = experiment: Soft agar colony formation, MIA-PaCa-2; type: cell-based, human; conditions: MIA-PaCa-2, dose dependent, three weeks
Method: FIG. 1 Anti-tumor effects of (E)-2,4,6-Trimethoxystyryl-3-Hydroxy-4-Methoxybenzyl Sulfone (6aa). A. 6aa inhibits the growth of parental (MES-SA) and Paclitaxel resistant (MES-SA/DX5) cell lines with equal efficiency. The parental uterine sarcoma cells and the MDR positive (MES-SA/DX5) cells were plated into 6 well dishes and treated with various concentrations of 6aa and Paclitaxel for 96 h. The number of viable cells from duplicate plates was determined by trypan blue exclusion. B. Soft Agar Assays. MIA-PaCa-2 cells (1.0×10^5) were plated in soft agar containing various concentrations of each compound in triplicates. After three weeks of growth, the plates were stained for 48 h using 0.05% nitroblue tetrazolium solution. Representative plates were photographed using an Olympus stereoscope mounted with a Sony digital camera system (DKC5000, Sony Inc).
The soft agar plates were prepared as described by Cosenza, et al (Cosenza, S. C. et al. In Cell Growth, Differentiation and Senescence, Studzinski, G. P., Ed.; Oxford University Press: 1999, 161-176.). Briefly, Noble bottom agar (0.8%) was plated onto 60 mm tissue culture plates. Exponentially growing MIA-PaCa-2 cells (1.0×10^5) were mixed with growth medium with various concentrations of each compound and mixed with Noble agar to a final concentration of 0.4%. Each concentration was plated in triplicate. The top agar was allowed to solidify and the plates were then incubated at 5% CO2 at 37° C. for 3 weeks. The plates were then stained with 0.05% nitroblue tetrazolium (NBT) solution and representative plates were photographed using an Olympus stereoscope mounted with a Sony digital camera system (DKC5000, Sony Inc).

With `COc1cc(OC)c(/C=C/S(=O)(=O)Cc2ccc(OC)c(O)c2)c(OC)c1` [6aa, (E)-2,4,6-Trimethoxystyryl-3-Hydroxy-4-Methoxybenzyl Sulfone] the IC50 2008 was 5 nM, the IC50 (SW480) was 7 nM and the “growth of tumor cells in soft agar” value (DU145 [1]) was “complete inhibition of the growth of tumor cells”. The IC50 (HCT-116) was 9 nM, the IC50 (K562) was 4 nM and the “apoptosis as judged by PARP cleavage” value (DU145 [2]) was “activation of apoptotic pathways”. For the same compound, the “effect on cell cycle progression” value [3] was “block of their cell cycle progression in the G1 phase”, the IC50 (Sk-OV-3) was 6 nM and the “growth of tumor cells in soft agar” value (MIA-PaCa-2 cells) was “complete inhibition of the growth of tumor cells”.
